In patent US11117876B2, “Crystalline form of ozanimod hydrochloride, and processes for preparation thereof” (RECEPTOS, LLC, priority 2017, dated 2021):
Entries after “also recorded” stand apart in the source; their conditions may differ. Counter-ions that a name gives are not always drawn.

Key:
Format in all cases: physicochemical
[1] = Dynamic solubility of Form CS2 in SGF, FeSSIF, FaSSIF and water; conditions: for solubility at 1 h / solubility at 4 h / solubility at 24 h: thermodynamic from solid
Procedure: High Performance Liquid Chromatography (HPLC) data for solubility test in example 5 of the present disclosure were collected from an Agilent 1100 with Diode Array Detector (DAD). The HPLC method parameters are as follows: • Column: L005# Waters Xbridge C18, 150×4.6 mm, 5 μm • Mobile Phase: A: 0.1% TFA in H2O • B: 0.1% TFA in Acetonitrile
• Flow rate: 1.0 ml/min • Injection Volume: 5 μl • Detection wavelength: 270 nm • Column Temperature: 40° C. • Diluent: MeOH/THF (v/v, 6/4)
Simulated gastrointestinal fluids such as SGF (Simulated gastric fluids), FaSSIF (Fasted state simulated intestinal fluids) and FeSSIF (Fed state simulated intestinal fluids) are biorelevant media. Solubility in such media is closer to that in human environment, which can reflect the effects of gastrointestinal environment on drug release better.
20 mg of Form CS2 was suspended into 1.5 mL of SGF, 1.5 mL of […], 1.5 mL of […] and 1.5 mL of water to get saturated solutions. After equilibrated for 1 h, 4 h and 24 h, concentrations (mg/mL) of the saturated solutions were measured by HPLC.

[2] = Particle size distribution of Form CS2 (laser particle size analyzer); conditions: wet mode, Isopar G
Procedure: The particle size distribution data in the present disclosure were acquired by an S3500 laser particle size analyzer of Microtrac. Microtrac S3500 is equipped with an SDC (Sample Delivery Controller). The test is carried out in wet mode, and the dispersion medium is Isopar G. The parameters are as follows:
10-30 mg of Form CS2 and 10 mL of Isopar G (containing 0.2% lecithin) were mixed thoroughly and then transferred into the SDC. The measurement was started when the sample amount indicator is in appropriate position. The average particle diameter calculated by volume, the diameter at which 10% mass is comprised of smaller particles, the diameter at which 50% mass is comprised of smaller particles and the diameter at which 90% mass is comprised of smaller particles were obtained in particle size distribution test.
Explanation of the abbreviations used in the present invention is as follows: • MV: Average particle diameter calculated by volume. • D10: the size in microns below which 10 percent of the particles reside on a volume basis. • D50: the size in microns below which 50 percent of the particles reside on a volume basis, also known as the median diameter. • D90: the size in microns below which 90 percent of the particles reside on a volume basis.

[3] = Mechanical stability of Form CS2 (manual grinding, XRPD); conditions: ground manually for 5 minutes in a mortar
Procedure: Solid sample of Form CS2 was ground manually for 5 minutes in a mortar. The XRPD comparison pattern of Form CS2 before and after grinding is depicted in FIG. 8.

[4] = Long-term and accelerated stability of Form CS2 (XRPD and HPLC purity after storage); conditions: 7 weeks, open dish, hydrochloride
Source text: X-ray powder diffraction pattern in the present disclosure was acquired by a Panalytical Empyrean X-ray powder diffractometer. The parameters of the X-ray powder diffraction method of the present disclosure were as follows: • X-ray Reflection: Cu, Kα. • Kα1 (Å): 1.540598; Kα2 (ÅA): 1.544426 • Kα2/Kα1 intensity ratio: 0.50 • Voltage: 45 (kV) • Current: 40 (mA) • Scan range: from 3.0 to 40.0 degree
High Performance Liquid Chromatography (HPLC) data for purity test in example 4 of the present disclosure were collected from an Agilent 1260 with UV Variable Wavelength Detector (VWD). The HPLC method parameters are as follows: • Column: Waters XBridge C18 150×4.6 mm, 5 μm • Mobile Phase: A: 0.1% TFA in H2O • B: 0.1% TFA in Acetonitrile
• Flow rate: 1.0 mL/min • Injection Volume: 10 μL • Detection wavelength: 270 nm • Column Temperature: 40° C. • Diluent: MeOH/THF (v/v, 6/4)
Three solid samples of Form CS2 were stored under the conditions of 25° C./60% RH, 40° C./75% RH and 60° C./75% RH for 7 weeks in open dishes. XRPD of the samples was tested and the physical stability results are shown in FIG. 7 (from top to bottom: XRPD pattern of Form CS2 before and after being stored under the conditions of 25° C./60% RH, 40° C./75% RH and 60° C./75% RH for 7 weeks). Chemical purity of Form CS2 was tested after stored under the conditions of 25° C./60% RH and 40° C./75% RH for 7 weeks and the results are shown in Table 4.

[5] = Hygroscopicity of Form CS2 by dynamic vapor sorption (DVS); conditions: for Weight gain under 80% RH: 25° C., hydrochloride
Procedure: Dynamic Vapor Sorption (DVS) is measured via a SMS (Surface Measurement Systems Ltd.) intrinsic DVS instrument. Its control software is DVS-Intrinsic control software, and its analysis software is DVS-Intrinsic Analysis software. Typical Parameters for DVS test are as follows: • Temperature: 25° C. • Gas and flow rate: N2, 200 mL/min • dm/dt: 0.002%/min • RH range: 0% RH to 95% RH
Dynamic vapor sorption (DVS) was applied to test hygroscopicity of Form CS2 with about 10 mg of sample. The DVS plot of Form CS2 is depicted in FIG. 9.

[6] = FaSSIF (fasted state simulated intestinal fluid), FaSSIF
[7] = FeSSIF (fed state simulated intestinal fluid), FeSSIF

solubility at 1 h [1, 6]: 3000 µg/mL
solubility at 4 h ([1]; FaSSIF (fasted state simulated intestinal fluid), FaSSIF, 4 h): 3000 µg/mL
solubility at 24 h [1, 6]: 3100 µg/mL
solubility at 1 h [1, 7]: 300 µg/mL
solubility at 4 h ([1]; FeSSIF (fed state simulated intestinal fluid), FeSSIF, 4 h): 280 µg/mL
solubility at 24 h [1, 7]: 320 µg/mL
solubility at 24 h ([1]; SGF (simulated gastric fluid), simulated gastric fluid, SGF): 240 µg/mL
Solubility ([1]; SGF, 4 h): 210 µg/mL
Solubility (in words) ([1]; in SGF, FeSSIF, FaSSIF and H2O): high
solubility at 4 h ([1]; water, H2O, 4 h): 2200 µg/mL
solubility at 24 h ([1]; water, H2O): 2400 µg/mL
D10 [2]: 7.6 μm
D50 [2]: 44.90 μm
D90 [2]: 149.4 μm
Particle size distribution (in words) [2]: uniform
MV (average particle diameter calculated by volume) ([2]; hydrochloride): about 64.22 μm
MV (average particle diameter calculated by volume) ([2]; listed as CS2, hydrochloride): 64.22 μm
Crystalline form change after grinding (XRPD) [3]: doesn't change
Weight gain under 80% RH [5]: 2.34%
Weight gain under 80% RH ([5]; listed as Form CS2 of ozanimod hydrochloride): 2.34%
Hygroscopicity (in words) ([5]; 80% RH): low
Compound: CC(C)Oc1ccc(-c2nc(-c3cccc4c3CC[C@@H]4NCCO)no2)cc1C#N [Form CS2, ozanimod hydrochloride]
Crystalline form change after storage (XRPD) ([4]; 25° C./60% RH): no form change; also recorded: doesn't change
Crystalline form change after storage (XRPD) ([4]; 40° C./75% RH): no form change; also recorded: doesn't change
Crystalline form change after storage (XRPD) ([4]; 60° C./75% RH): no form change; also recorded: doesn't change
